Each structure is given as a SMILES string.

Potassium voltage-gated channel subfamily A member 5, sequence (P22460 whole entry): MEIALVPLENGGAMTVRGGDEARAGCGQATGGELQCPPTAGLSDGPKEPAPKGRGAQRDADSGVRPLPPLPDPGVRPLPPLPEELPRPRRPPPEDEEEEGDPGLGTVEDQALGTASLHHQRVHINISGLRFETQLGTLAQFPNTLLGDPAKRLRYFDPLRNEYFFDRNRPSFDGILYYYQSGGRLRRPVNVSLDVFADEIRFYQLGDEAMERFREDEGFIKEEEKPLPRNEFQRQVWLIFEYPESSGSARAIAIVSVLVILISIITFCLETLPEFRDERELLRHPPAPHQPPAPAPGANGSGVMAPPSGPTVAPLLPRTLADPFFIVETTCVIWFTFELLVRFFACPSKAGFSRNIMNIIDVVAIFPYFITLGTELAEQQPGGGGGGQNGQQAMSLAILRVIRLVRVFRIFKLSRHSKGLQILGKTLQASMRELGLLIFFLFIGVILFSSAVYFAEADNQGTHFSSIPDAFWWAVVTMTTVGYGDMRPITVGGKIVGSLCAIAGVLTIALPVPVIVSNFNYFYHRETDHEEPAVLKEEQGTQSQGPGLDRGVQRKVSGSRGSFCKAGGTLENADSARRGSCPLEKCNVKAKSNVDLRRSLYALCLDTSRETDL

The assay concerns the target Potassium voltage-gated channel subfamily A member 5 (Homo sapiens, UniProt P22460). Briefly: Inhibition of human Kv1.5 channel expressed in mouse L929 cells by EP voltage clamp technique.
Turning to `CCN(CC)C(=O)C1C(C)=Nc2ccnn2C1c1ccc(Cl)c(Cl)c1` (stereo unspecified) [7-(3,4-dichlorophenyl)-N,N-diethyl-5-methyl-4,7-dihydropyrazolo[1,5-a]pyrimidine-6-carboxamide], the IC50 is 440 nM.

As to `CC1=Nc2ccnn2C(c2sc3ccccc3c2C)C1C(=O)N1CCN(c2ccc(F)cc2)CC1` (stereo unspecified) [(4-(4-fluorophenyl)piperazin-1-yl)(5-methyl-7-(3-methylbenzo[b]thiophen-2-yl)-4,7-dihydropyrazolo[1,5-a]pyrimidin-6-yl)methanone], half-maximal inhibition (IC50) was put at 200 nM. The value for `CC1=Nc2ccnn2C(c2cccc(Cl)c2Cl)C1C(=O)N1CCN(c2ccc(F)cc2)CC1` (stereo unspecified) [(7-(2,3-dichlorophenyl)-5-methyl-4,7-dihydropyrazolo[1,5-a]pyrimidin-6-yl)(4-(4-fluorophenyl)piperazin-1-yl)methanone] was 160 nM; that for `COC[C@@H]1CCCN1C(=O)C1C(C)=Nc2ccnn2C1c1ccc(Cl)c(Cl)c1` (stereo partly drawn) [(7-(3,4-dichlorophenyl)-5-methyl-4,7-dihydropyrazolo[1,5-a]pyrimidin-6-yl)((S)-2-(methoxymethyl)pyrrolidin-1-yl)methanone] was 200 nM; that for `CC1=Nc2ccnn2C(c2cccc(Cl)c2)C1C(=O)N1CCN(c2ccc(F)cc2)CC1` (stereo unspecified) [(7-(3-chlorophenyl)-5-methyl-4,7-dihydropyrazolo[1,5-a]pyrimidin-6-yl)(4-(4-fluorophenyl)piperazin-1-yl)methanone] was 190 nM. `CC1=Nc2ccnn2C(c2ccc(Cl)cc2)C1C(=O)N1CCN(c2ccc(F)cc2)CC1` (stereo unspecified) [(7-(4-chlorophenyl)-5-methyl-4,7-dihydropyrazolo[1,5-a]pyrimidin-6-yl)(4-(4-fluorophenyl)piperazin-1-yl)methanone] showed an IC50 of 440 nM. Under `CC1=Nc2ccnn2C(c2cc3ccccc3o2)C1C(=O)N1CCN(c2ccc(F)cc2)CC1` (stereo unspecified) [(7-(benzofuran-2-yl)-5-methyl-4,7-dihydropyrazolo[1,5-a]pyrimidin-6-yl)(4-(4-fluorophenyl)piperazin-1-yl)methanone] stands 160 nM; under `CC1=Nc2ccnn2[C@H](c2cccc(Cl)c2Cl)C1C(=O)N1CCN(c2ccc(F)cc2)CC1` (stereo partly drawn) [(S)-(7-(2,3-dichlorophenyl)-5-methyl-4,7-dihydropyrazolo[1,5-a]pyrimidin-6-yl)(4-(4-fluorophenyl)piperazin-1-yl)methanone], 160 nM; under `CC1=Nc2ccnn2C(c2ccc(Cl)c(Cl)c2)C1C(=O)NCc1ccccc1` (stereo unspecified) [N-benzyl-7-(3,4-dichlorophenyl)-5-methyl-4,7-dihydropyrazolo[1,5-a]pyrimidine-6-carboxamide], 160 nM. Compound `CCCCNC(=O)C1C(C)=Nc2ccnn2C1c1ccc(Cl)c(Cl)c1` (stereo unspecified) [N-butyl-7-(3,4-dichlorophenyl)-5-methyl-4,7-dihydropyrazolo[1,5-a]pyrimidine-6-carboxamide] came in with an IC50 of 440 nM. As to `CC1=Nc2ccnn2C(c2ccc(Cl)c(Cl)c2)C1C(=O)N1CCCCCC1` (stereo unspecified) [azepan-1-yl(7-(3,4-dichlorophenyl)-5-methyl-4,7-dihydropyrazolo[1,5-a]pyrimidin-6-yl)methanone], half-maximal inhibition (IC50) required 190 nM. This IC50 lies about 2.3-fold lower than the previous one.

Usually IC50 stands for the concentration that inhibits the measured activity by half. A low value points to higher potency.

The values are drawn from BindingDB's records for doi:10.1016/j.bmcl.2008.10.099 (Bristol-Myers Squibb, 2008).
